US20250041298A1, “CDK4 INHIBITOR FOR THE TREATMENT OF CANCER” (Pfizer Inc., priority 2021, published 2025)
Several values for one entry are separate records, joined by “and”; a condition that tells them apart may be missing. Equal values may be shown once.

Legend:
[1] = test system: advanced or metastatic solid tumors; test: Phase 1/1b clinical trial: tumor response (best overall response, RECIST 1.1); type: in vivo, human
Description: The present therapy may result in a complete response (CR), partial response (PR), progressive disease (PD), or stable disease (SD) in patients. Bioimaging can be used to evaluate the level of response to the therapy. Cytology and histology may also be used as needed (e.g., to locate any residual lesions). In some embodiments, the various levels of response can be evaluated in accordance with Table 1 below.
• For Part 1: participant must have evaluable lesion (including skin or bone lesion only). • For Part 2B and Part 2C: participants must have measurable disease as defined per RECIST (Response Evaluation Criteria in Solid Tumors) version 1.1 (Eisenhauer et al., European Journal of Cancer, 2009, 45 (2): 228-47). Tumor lesions previously irradiated or subjected to locoregional therapy will only be deemed measurable if progression at the treated site after completion of therapy is clearly documented.

[2] = Phase 1/1b clinical trial: safety (DLTs, treatment-emergent adverse events); type: in vivo, human
Method: As used herein, “dose limiting toxicity” (DLT) refers to the dosage of PF-07220060 that is contraindicative of a further increase in dosage.
An ongoing open-label, nonrandomized, dose-finding Phase 1/1b Study investigating the safety, tolerability, PK, and PD of PF-07220060 administered as a single agent and when administered in combination with endocrine therapy.
Adverse events of the patients dosed with PF-07220060 in the Phase 1/1b clinical trial were evaluated using the National Cancer Institute Common Terminology Criteria for Adverse Events (NCI CTCAE) version 4.03.

[3] = test system: HR+, HER2- T47D breast cancer spheroids; test: Multicellular tumor spheroid growth inhibition (SGI), T47D; type: cell-based, human
Method: The purpose of this example was to evaluate the combination effect of PF-07220060 and endocrine therapy in multicellular tumor spheroid growth inhibition (SGI). To model the characteristics and cellular behavior of human tumors, the activity of PF-07220060 was evaluated in three dimensional MCTS models of HR+ breast cancer and AR+ prostate cancer following PF-07220060 treatment as a single agent and in combination with fulvestrant • 1) in HR+, HER2-T47D breast cancer spheroids. • 2) in HR+, HER2+BT474 breast cancer spheroids, • 3) in BT474 spheroids, and • 4) in AR+ prostate carcinoma cell line (LNCaP) prostate cancer spheroids. Spheroids were treated with increasing concentrations of 100, 300, or 1000 nM PF-07220060 and compared to palbociclib at the clinically relevant concentration of 30 nM. Single agent PF-07220060 inhibited spheroid growth in a dose-dependent manner, with highest efficacy (86% SGI over the duration of treatment with 1000 nM) shown in the T47D BC spheroid model (Table 1). Combining 100 nM PF-07220060 with 1 nM fulvestrant in T47D cells increased SGI to 96% compared to either single agent alone (57 to 67% SGI with 100 nM PF-07220060 or 79% SGI with fulvestrant) (Table 1). BT474 spheroids were relatively less sensitive to PF-07220060 resulting in 52% SGI at 1000 nM.

[4] = Part 1D food effect cohort (n = 6)
[5] = Total, all cohorts (27 patients)
[6] = Total, all cohorts (35 patients)
[7] = confirmed best overall response, Part 1D food effect cohort (n = 6)
[8] = confirmed best overall response, Total Part 1A (single agent), 1B, 1C, 1B + 1C, by label
[9] = confirmed best overall response, Total, all cohorts (n = 70)
[10] = 66 participants dosed in Part 1A, 1B, 1C and 1D
[11] = Part 1D, single agent 400 mg BID food cohort
[12] = Part 1D, single agent 400 mg BID food cohort, 6 participants
[13] = across all dose levels, by label
[14] = across all dose levels, Part 1A
[15] = any grade, all dose levels, Part 1A, 1B, 1C, by label
[16] = any grade, all dose levels, Part 1A, 1C, by label
[17] = overall, 66 participants dosed in Part 1

## CC(C)n1c(C(C)(C)O)nc2c(F)cc(-c3nc(N[C@@H]4CCOC[C@H]4O)ncc3Cl)cc21 [PF-07220060, 1,5-anhydro-3-({5-chloro-4-[4-fluoro-2-(2-hydroxypropan-2-yl)-1-(propan-2-yl)-1H-benzimidazol-6-yl]pyrimidin-2-yl}amino)-2,3-dideoxy-D-threo-pentitol]
[1]; Part 1D food effect cohort (5 patients)
  Objective Response (CR + PR) for Patients without Breast Cancer, %: (20.0) %
[1]; [4]
  Disease Control (CR + PR + SD + Non-CR/Non-PD), %: (50.0) %
  Objective Response (CR + PR), %: (16.7) %
[1]; Patients with Breast Cancer (with Measurable Disease at Baseline), Total Part 1A (single agent), 1B, 1C, 1B + 1C, by label
  Clinical Benefit Response, %: (40.0) %
[1]; Patients with Breast Cancer (with Measurable Disease at Baseline), Total, all cohorts (27 patients)
  Clinical Benefit Response, %: (48.1) %
[1]; Patients with Breast Cancer, Total Part 1A (single agent), 1B, 1C, 1B + 1C, by label
  Clinical Benefit Response, %: (25.0) %
[1]; Patients with Breast Cancer, Total, all cohorts (35 patients)
  Clinical Benefit Response, %: (40.0) %
[1]; [5]
  Objective Response (CR + PR) for Patients with Breast Cancer (with Measurable Disease at Baseline), %: (22.2) %
  Objective Response (CR + PR) for Patients with prior CDK4/6 inhibitor (with Measurable Disease at Baseline), %: (22.2) %
[1]; [6]
  Objective Response (CR + PR) for Patients with Breast Cancer, %: (17.1) %
  Objective Response (CR + PR) for Patients without Breast Cancer, %: (2.9) %
[1]; Total, all cohorts (n = 70)
  Disease Control (CR + PR + SD + Non-CR/Non-PD), %: (65.7) %
  Objective Response (CR + PR), %: (10.0) %
[1]; Total, all cohorts (n = 70), listed as PF-06873600
  Disease Control (CR + PR + SD + Non-CR/Non-PD), %: 65.7%
[1]; all evaluable patients, Part 1D food effect cohort (n = 6)
  Clinical Benefit Response, %: (33.3) %
[1]; all evaluable patients, Total Part 1A (single agent), 1B, 1C, 1B + 1C, by label
  Clinical Benefit Response, %: (26.3) %
[1]; all evaluable patients, Total, all cohorts (n = 70)
  Clinical Benefit Response, %: (34.3) %
[1]; [7]
  Non-CR/Non-PD, %: (16.7) %
  Not evaluable (NE), %: (16.7) %
  Partial response (PR), %: (16.7) %
  Progressive disease (PD), %: (33.3) %
  Stable disease (SD), %: (16.7) %
[1]; [8]
  Non-CR/Non-PD, %: (10.5) %
  Not evaluable (NE), %: (23.7) %
  Progressive disease (PD), %: (15.8) %
  Stable disease (SD), %: (47.4) %
[1]; [9]
  Complete response (CR), %: (1.4) %
  Non-CR/Non-PD, %: (11.4) %
  Not evaluable (NE), %: (14.3) %
  Partial response (PR), %: (8.6) %
  Progressive disease (PD), %: (18.6) %
  Stable disease (SD), %: (44.3) %
[2]; 66 participants dosed in Part 1
  participants with any treatment-related TEAE, %: 81.8%
[2]; [10]
  number of all-causality TEAEs: 375
  participants with all-causality TEAEs, %: 89.4%
[2]; Part 1A
  diarrhoea, Grade 3 treatment-related TEAE: 5.9%
  thrombocytopenia, Grade 3 treatment-related TEAE: 5.9%
[2]; Part 1A (single agent, 34), 1B (13), 1C (13), by label
  participants with treatment-related TEAE, %: 79.4%
[2]; Part 1A, 400 mg BID group
  participants with Grade 5 all-causality TEAE (respiratory failure; unrelated to study drug): One
[2]; Part 1A, 1B, 1C, by label
  Grade 4 / Grade 5 all-causality TEAEs: No Grade 4 TEAEs were reported
  Grade 4 / Grade 5 treatment-related TEAEs: no Grade 4 or Grade 5 treatment-related TEAEs reported
  anaemia, Grade 3 treatment-related TEAE: 5.9%
  leukopenia, Grade 3 treatment-related TEAE: 5.9%
  neutropenia, Grade 3 treatment-related TEAE: 14.7%
  participants with Grade 3 treatment-related TEAEs, %: 26.5%
[2]; [11]
  Grade 3, 4 or 5 treatment-related TEAEs: No Grade 3, 4 nor 5 treatment-related TEAEs were reported
  Grade 3 or 5 TEAEs: No Grade 3 or 5 TEAEs were reported
  diarrhoea, all-causality TEAE: 50.0%
  diarrhoea, treatment-related TEAE: 50.0%
  leukopenia, all-causality TEAE: 50.0%
  leukopenia, treatment-related TEAE: 50.0%
  neutropenia, all-causality TEAE: 50.0%
  neutropenia, treatment-related TEAE: 50.0%
  participants with Grade 4 all-causality TEAE (respiratory failure): One
[2]; [12]
  participants with TEAEs, %: 66.7%
  participants with treatment-related TEAEs, %: 66.7%
[2]; [13]
  anaemia, Grade 3 or higher (1A) / Grade 3 (1B, 1C) all-causality TEAE: 5.9%
  leukopenia, Grade 3 or higher (1A) / Grade 3 (1B, 1C) all-causality TEAE: 5.9%
  neutropenia, Grade 3 or higher (1A) / Grade 3 (1B, 1C) all-causality TEAE: 14.7%
  number of Grade 3 or higher (Part 1A) / Grade 3 (Part 1C) all-causality TEAEs: 15
[2]; [14]
  COVID-19, Grade 3 or higher all-causality TEAE: 5.9%
  aspartate aminotransferase increased, Grade 3 or higher all-causality TEAE: 5.9%
  diarrhoea, Grade 3 or higher all-causality TEAE: 5.9%
  syncope, Grade 3 or higher all-causality TEAE: 5.9%
  thrombocytopenia, Grade 3 or higher all-causality TEAE: 5.9%
[2]; all dose levels, Part 1A (single agent, 34), 1B (13), 1C (13), by label
  participants with all-causality TEAEs, %: 94.1%
[2]; any grade, all dose levels, Part 1A
  aspartate aminotransferase increased, all-causality TEAE: 20.6%
[2]; [15]
  anaemia, all-causality TEAE: 35.3%
  diarrhoea, all-causality TEAE: 35.3%
  diarrhoea, treatment-related TEAE: 23.5%
  fatigue, treatment-related TEAE: 11.8%
  leukopenia, all-causality TEAE: 35.3%
  nausea, all-causality TEAE: 29.4%
  nausea, treatment-related TEAE: 26.5%
  neutropenia, all-causality TEAE: 41.2%
  neutropenia, treatment-related TEAE: 41.2%
  vomiting, all-causality TEAE: 20.6%
[2]; [16]
  anaemia, treatment-related TEAE: 29.4%
  leukopenia, treatment-related TEAE: 29.4%
  thrombocytopenia, treatment-related TEAE: 20.6%
  vomiting, treatment-related TEAE: 14.7%
[2]; of the 55 evaluable participants, all cohorts, as of Sep. 2, 2022
  participants who experienced DLTs, %: 7.3%
[2]; [17]
  anemia, treatment-related TEAE: 21.2%
  diarrhea, treatment-related TEAE: 33.3%
  leukopenia, treatment-related TEAE: 30.3%
  nausea, treatment-related TEAE: 27.3%
  neutropenia, treatment-related TEAE: 40.9%
[2]; single agent 200 mg BID cohort
  participants with DLT of Grade 3 neutropenia: One
[2]; single agent 500 mg BID cohort
  participants with DLT of Grade 3 thrombocytopenia: Two
[3]; 100 nM single agent
  SGI: 57% and 67%
[3]; 300 nM single agent
  SGI: 74%
[3]; 1000 nM single agent
  SGI: 86%
